Assay results as given in patent US8143288B2, “Inhibitors of HCV replication” (priority 2005, dated 2012).

Tested on: HCV 1b-377-neo replicon cells
Assay: HCV replicon FRET assay
Assay type: cell-based
Settings: Hepatitis C virus; HCV replicon; read-out: Activity (EC50)
Description: The HCV replicon cell line was isolated from colonies as described by Lohman, et. al. (Science 1999, 285, 110-113, expressly incorporated by reference in its entirety) and used for all experiments. The HCV replicon has the nucleic acid sequence set forth in EMBL Accession No.: AJ242652, the coding sequence of which is from nt 1801 to 7758.
The coding sequence of the published HCV replicon was synthesized by Operon Technologies, Inc. (Alameda, Calif.), and the fall-length replicon was then assembled in plasmid pGem9zf(+) (Promega, Madison, Wis.) using standard molecular biology techniques. The replicon consists of (i) the HCV 5′ UTR fused to the first 12 amino acids of the capsid protein, (ii) the neomycin phosphotransferase gene (neo), (iii) the IRES from encephalomyocarditis virus (EMCV), and (iv) HCV NS3 to NS5B genes and the HCV 3′ UTR. Plasmid DNAs were linearized with ScaI and RNA transcripts were synthesized in vitro using the T7 MegaScript transcription kit (Ambion, Austin, Tex.) according to manufacturer's directions.
To generate cell lines, 4×10^6 Huh-7 cells (kindly provided by R. Bartenschlager and available from Health Science Research Resources Bank, Japan Health Sciences Foundation) were electroporated (GenePulser System, Bio-Rad) with 10 micrograms(“μg”) of RNA transcript and plated into 100-mm dishes. After 24 hours, selective media containing 1.0 milligrams/milliliter (“mg/mL”) G418 was added and media was changed every 3 to 5 days. […] These cell lines were maintained at 37° C., 5% CO2, 100% relative humidity in DMEM (Cat#11965-084) Gibco-BRL, Rockville, Md., with 10% heat inactivated calf serum (Sigma), 10 mL of 100× penicillin/streptomycin (Cat#15140-122) Gibco-BRL, Rockville, Md., Geneticin (Cat#10131-027) Gibco-BRL, Rockville, Md. at 1 mg/mL. One of the cell lines (deposited as ATCC Accession No. PTA-4583 in the American Type Culture Collection) which had approximately 3,000 copies of HCV replicon RNA/cell was used for development of the assay (HCV 1b-377-neo replicon cells).
To perform the HCV FRET screening assay, 96-well cell culture plates were used. The FRET peptide (Anaspec, Inc., San Jose, Calif.) (Taliani et al., Anal. Biochem. 1996, 240, 60-67, hereby incorporated by reference in its entirety) contains a fluorescence donor, EDANS, near one end of the peptide and an acceptor, DABCYL, near the other end. The fluorescence of the peptide is quenched by […] resonance energy transfer (RET) between the donor and the acceptor, but as the NS3 protease cleaves the peptide the products are released from RET quenching and the fluorescence of the donor becomes apparent.
The assay reagent was made as follows: 5X luciferase cell culture lysis (Cat#E153A, Promega, Madison, Wis.) diluted to 1X with dH2O, NaCl added to […] final, the FRET peptide diluted to 20 micromolar (“μM”) final from a 2 mM stock. HCV 1b-377-neo replicon cells were trypsinized, placed into each well of a 96-well plate and allowed to attach overnight. The next day, the test compounds were added to columns 1 through 10; column 11 was media plus DMSO only, and column 12 contained a titration of interferon or an HCV specific inhibitor as a control (1000 units for A12, B12, 100 units for C12, D12, 10 units for E12, F12 and 1 unit for G12, H12). […] In addition, naïve Huh-7 cells could also be used to replace wells A12 and B12 as a background control.
At subsequent various times (typically 72 hours), 10% final volume Alamar blue (Cat#00-100, Trek Diagnostics, Cleveland, Ohio) was added to each well. The plates were returned to the incubator for 5 hours and then read in the Cytoflour (PE Biosystems) to determine Alamar blue conversion in each well as a measure of cellular toxicity.

## O=C(Nc1ccc(/C=C/c2ccc(NC(=O)[C@@H]3CCCN3C(=O)OCc3ccccc3)cc2)cc1)[C@@H]1CCCN1C(=O)OCc1ccccc1 [Example 2]
  EC50: 0.1 to 90 nM

## O=C(Nc1ccc(/C=C/c2ccc(NC(=O)[C@@H]3C[C@@H](O)CN3C(=O)OCc3ccccc3)cc2)cc1)[C@@H]1C[C@@H](O)CN1C(=O)OCc1ccccc1 [Example 4]
  EC50: 0.1 to 90 nM

## O=C(Nc1ccc(/C=C\c2ccc(NC(=O)[C@@H]3CCCN3C(=O)Cc3ccccc3)cc2)cc1)[C@@H]1CCCN1C(=O)Cc1ccccc1 [Example 5]
  EC50: 0.1 to 90 nM

## O=C(Nc1ccc(/C=C\c2ccc(NC(=O)[C@@H]3CCCN3C(=O)OCc3ccccc3)cc2)cc1)[C@@H]1CCCN1C(=O)OCc1ccccc1 [Example 6]
  EC50: 0.1 to 90 nM

## O=C(Nc1ccc(/C=C/c2ccc(NC(=O)[C@@H]3C[C@H](O)CN3C(=O)OCc3ccccc3)cc2)cc1)[C@@H]1C[C@H](O)CN1C(=O)OCc1ccccc1 [Example 7]
  EC50: 0.1 to 90 nM

## O=C(Nc1ccc(/C=C\c2ccc(NC(=O)[C@@H]3C[C@@H](O)CN3C(=O)OCc3ccccc3)cc2)cc1)[C@@H]1C[C@@H](O)CN1C(=O)OCc1ccccc1 [Example 8]
  EC50: 100 to 1000 nM

## O=C(Nc1ccc(/C=C/c2ccc(NC(=O)[C@@H]3CCCCN3C(=O)OCc3ccccc3)cc2)cc1)[C@@H]1CCCCN1C(=O)OCc1ccccc1 [Example 9]
  EC50: 0.1 to 90 nM

## O=C(Nc1ccc(/C=C/c2ccc(NC(=O)[C@@H]3Cc4ccccc4CN3C(=O)OCc3ccccc3)cc2)cc1)[C@@H]1Cc2ccccc2CN1C(=O)OCc1ccccc1 [Example 10]
  EC50: 1000 to 10000 nM

## O=C(Nc1ccc(/C=C/c2ccc(NC(=O)[C@@H]3COCN3C(=O)OCc3ccccc3)cc2)cc1)[C@@H]1COCN1C(=O)OCc1ccccc1 [Example 11]
  EC50: 1000 to 10000 nM

## O=C(Nc1ccc(/C=C/c2ccc(NC(=O)C3CC(=O)N(Cc4ccc(Cl)cc4)C3)cc2)cc1)C1CC(=O)N(Cc2ccc(Cl)cc2)C1 (stereo not drawn) [Example 12]
  EC50: 1000 to 10000 nM

## O=C(Nc1ccc(/C=C/c2ccc(NC(=O)C3CC(=O)N(Cc4cccs4)C3)cc2)cc1)C1CC(=O)N(Cc2cccs2)C1 (stereo not drawn) [Example 13]
  EC50: 1000 to 10000 nM

## O=C(Nc1ccc(/C=C/c2ccc(NC(=O)C3CC(=O)N(CCc4cccs4)C3)cc2)cc1)C1CC(=O)N(CCc2cccs2)C1 (stereo not drawn) [Example 14]
  EC50: 1000 to 10000 nM

## CO[C@@H]1C[C@@H](C(=O)Nc2ccc(/C=C/c3ccc(NC(=O)[C@@H]4C[C@H](OC)CN4C(=O)OCc4ccccc4)cc3)cc2)N(C(=O)OCc2ccccc2)C1 [Example 15]
  EC50: 0.1 to 90 nM

## CCO[C@@H]1C[C@@H](C(=O)Nc2ccc(/C=C/c3ccc(NC(=O)[C@@H]4C[C@H](OCC)CN4C(=O)OCc4ccccc4)cc3)cc2)N(C(=O)OCc2ccccc2)C1 [Example 16]
  EC50: 1000 to 10000 nM

## CO[C@H]1C[C@@H](C(=O)Nc2ccc(/C=C/c3ccc(NC(=O)[C@@H]4C[C@H](OC)CN4C(=O)OCc4ccccc4)cc3)cc2)N(C(=O)OCc2ccccc2)C1 [Example 17]
  EC50: 1000 to 10000 nM

## CCO[C@H]1C[C@@H](C(=O)Nc2ccc(/C=C/c3ccc(NC(=O)[C@@H]4C[C@H](OCC)CN4C(=O)OCc4ccccc4)cc3)cc2)N(C(=O)OCc2ccccc2)C1 [Example 18]
  EC50: 1000 to 10000 nM

## O=C(Nc1ccc(/C=C/c2ccc(NC(=O)[C@@H]3Cc4ccccc4N3C(=O)OCc3ccccc3)cc2)cc1)[C@@H]1Cc2ccccc2N1C(=O)OCc1ccccc1 [Example 19]
  EC50: 0.1 to 90 nM

## CC(C)(C)OC(=O)N1c2ccccc2C[C@H]1C(=O)Nc1ccc(/C=C/c2ccc(NC(=O)[C@@H]3Cc4ccccc4N3C(=O)OC(C)(C)C)cc2)cc1 [Example 20]
  EC50: 100 to 1000 nM

## CC(C)(C)OC(=O)N1CCC[C@H]1C(=O)Nc1ccc(/C=C/c2ccc(NC(=O)[C@@H]3CCCN3C(=O)OC(C)(C)C)cc2)cc1 [Example 21]
  EC50: 100 to 1000 nM

## CC(C)(C)OC(=O)N1CCC[C@H]1C(=O)Nc1ccc(/C=C/c2ccc(NC(=O)[C@@H]3CCCN3)cc2)cc1 [Example 22]
  EC50: 1000 to 10000 nM

## COc1cccc(CC(=O)N2CCC[C@H]2C(=O)Nc2ccc(/C=C/c3ccc(NC(=O)[C@@H]4CCCN4C(=O)Cc4cccc(OC)c4)cc3)cc2)c1 [Example 25]
  EC50: 100 to 1000 nM
